Results: patent publication US20100226853A1 (priority 2007, published 2010)

Key:
EGFR = target: T1, EGFR (Homo sapiens, UniProt P00533); assay: QuickScout ELISA kinase panel; assay type: biochemical; settings: Compound 5 at 10 nM
T1 construct: purchased Carna Biosciences (QuickScout service)
Text: (§1) An ELISA-based assay was used in which the phosphorylation of an oligopeptide substrate was detected by an HRP-conjugated anti-p-Tyr (PY20) probe.

FAK = target: T2, FAK (Homo sapiens, UniProt Q05397); assay: QuickScout ELISA kinase panel; assay type: biochemical; settings: read-out: % Inhibition of Kinase Activity, FAK
T2 construct: purchased Carna Biosciences (QuickScout service)
Text: as §1

FGFR1 = target: T3, FGFR1 (Homo sapiens, UniProt P11362); assay: QuickScout ELISA kinase panel; assay type: biochemical; settings: Compound 5 at 10 nM
T3 construct: purchased Carna Biosciences (QuickScout service)
Text: as §1

IGF1R = target: T4, IGF1R (Homo sapiens, UniProt P08069); assay: QuickScout ELISA kinase panel; assay type: biochemical; settings: Compound 5 at 10 nM
T4 construct: purchased Carna Biosciences (QuickScout service)
Text: as §1

KDR = target: T5, KDR (Homo sapiens, UniProt P35968); assay: QuickScout ELISA kinase panel; assay type: biochemical; settings: Compound 5 at 10 nM; negative = enhanced phosphorylation
T5 construct: purchased Carna Biosciences (Kobe, Japan), QuickScout service
T5 sequence (P35968 20-1356): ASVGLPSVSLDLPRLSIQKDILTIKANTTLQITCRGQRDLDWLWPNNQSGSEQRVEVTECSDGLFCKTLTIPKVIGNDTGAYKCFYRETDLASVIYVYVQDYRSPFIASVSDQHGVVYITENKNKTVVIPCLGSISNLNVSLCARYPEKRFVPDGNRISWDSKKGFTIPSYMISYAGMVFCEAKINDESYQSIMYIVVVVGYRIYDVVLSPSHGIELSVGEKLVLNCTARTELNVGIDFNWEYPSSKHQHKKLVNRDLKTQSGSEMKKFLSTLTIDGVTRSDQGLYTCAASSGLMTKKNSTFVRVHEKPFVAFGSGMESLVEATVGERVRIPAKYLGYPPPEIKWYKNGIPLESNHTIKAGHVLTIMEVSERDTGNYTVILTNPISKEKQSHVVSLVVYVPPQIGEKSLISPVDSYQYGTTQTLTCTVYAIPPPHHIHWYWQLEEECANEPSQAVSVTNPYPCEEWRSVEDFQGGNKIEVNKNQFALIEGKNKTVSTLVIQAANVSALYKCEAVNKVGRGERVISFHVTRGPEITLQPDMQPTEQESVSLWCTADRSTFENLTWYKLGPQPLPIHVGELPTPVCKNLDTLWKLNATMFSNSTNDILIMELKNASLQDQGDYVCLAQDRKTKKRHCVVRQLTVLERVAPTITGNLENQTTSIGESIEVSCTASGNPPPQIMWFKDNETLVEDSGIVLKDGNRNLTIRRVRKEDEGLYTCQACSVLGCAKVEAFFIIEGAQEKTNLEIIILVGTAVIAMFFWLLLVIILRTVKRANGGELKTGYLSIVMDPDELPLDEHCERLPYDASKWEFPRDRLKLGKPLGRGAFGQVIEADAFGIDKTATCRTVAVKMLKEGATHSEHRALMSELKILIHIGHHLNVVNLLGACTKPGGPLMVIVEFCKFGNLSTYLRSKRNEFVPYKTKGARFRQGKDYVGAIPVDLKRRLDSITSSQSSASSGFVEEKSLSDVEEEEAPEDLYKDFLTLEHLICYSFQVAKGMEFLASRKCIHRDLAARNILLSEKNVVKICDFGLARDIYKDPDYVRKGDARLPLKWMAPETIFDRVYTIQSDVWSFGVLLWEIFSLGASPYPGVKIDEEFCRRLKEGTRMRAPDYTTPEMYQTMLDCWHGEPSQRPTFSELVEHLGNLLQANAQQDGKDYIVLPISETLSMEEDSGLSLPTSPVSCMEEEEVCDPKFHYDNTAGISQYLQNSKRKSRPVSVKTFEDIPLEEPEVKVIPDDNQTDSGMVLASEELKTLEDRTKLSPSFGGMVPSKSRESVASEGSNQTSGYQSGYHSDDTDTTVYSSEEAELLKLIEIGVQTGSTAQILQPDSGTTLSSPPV
Text: as §1

KIT = target: T6, KIT (Homo sapiens, UniProt P10721); assay: QuickScout ELISA kinase panel; assay type: biochemical
T6 construct: purchased Carna Biosciences (Kobe, Japan), QuickScout service
T6 sequence (P10721 26-976): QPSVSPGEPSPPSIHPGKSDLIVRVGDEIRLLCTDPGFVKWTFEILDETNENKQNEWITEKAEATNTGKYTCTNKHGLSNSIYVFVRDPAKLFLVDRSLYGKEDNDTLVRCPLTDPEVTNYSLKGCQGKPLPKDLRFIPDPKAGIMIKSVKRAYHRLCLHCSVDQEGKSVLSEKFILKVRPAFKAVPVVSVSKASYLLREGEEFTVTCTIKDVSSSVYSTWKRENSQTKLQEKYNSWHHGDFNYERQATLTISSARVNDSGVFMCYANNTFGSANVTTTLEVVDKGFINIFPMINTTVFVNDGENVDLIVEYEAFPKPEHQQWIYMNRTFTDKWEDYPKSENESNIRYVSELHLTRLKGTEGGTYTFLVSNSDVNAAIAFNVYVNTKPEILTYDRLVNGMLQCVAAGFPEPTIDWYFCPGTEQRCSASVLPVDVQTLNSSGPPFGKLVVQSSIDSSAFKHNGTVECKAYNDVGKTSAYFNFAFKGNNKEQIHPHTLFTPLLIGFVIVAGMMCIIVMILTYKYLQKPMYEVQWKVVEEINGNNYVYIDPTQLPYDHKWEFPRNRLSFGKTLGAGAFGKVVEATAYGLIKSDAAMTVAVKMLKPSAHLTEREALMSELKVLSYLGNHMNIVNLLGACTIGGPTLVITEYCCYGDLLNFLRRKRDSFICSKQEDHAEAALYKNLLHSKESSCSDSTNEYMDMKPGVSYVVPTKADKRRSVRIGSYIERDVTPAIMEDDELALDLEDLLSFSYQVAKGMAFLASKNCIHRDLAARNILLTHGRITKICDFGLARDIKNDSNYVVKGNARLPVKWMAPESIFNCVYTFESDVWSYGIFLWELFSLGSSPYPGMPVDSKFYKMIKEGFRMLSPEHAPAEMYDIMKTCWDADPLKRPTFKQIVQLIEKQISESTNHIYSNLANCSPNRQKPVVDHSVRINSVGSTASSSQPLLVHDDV
Text: as §1

SYK = target: T7, SYK (Homo sapiens, UniProt P43405); assay: QuickScout ELISA kinase panel; assay type: biochemical; settings: read-out: % Inhibition of Kinase Activity, SYK
T7 construct: purchased Carna Biosciences (Kobe, Japan), QuickScout service
Text: as §1

TIE2 = target: T8, TIE2 (Homo sapiens, UniProt Q02763); assay: QuickScout ELISA kinase panel; assay type: biochemical; settings: Compound 5 at 10 nM; negative = enhanced phosphorylation
T8 construct: purchased Carna Biosciences (Kobe, Japan), QuickScout service
Text: as §1

TRKA = target: T9, TRKA (Homo sapiens, UniProt P04629); assay: QuickScout ELISA kinase panel; assay type: biochemical; settings: Compound 5 at 10 nM; negative = enhanced phosphorylation
T9 construct: purchased Carna Biosciences (Kobe, Japan), QuickScout service
T9 sequence (P04629 33-796): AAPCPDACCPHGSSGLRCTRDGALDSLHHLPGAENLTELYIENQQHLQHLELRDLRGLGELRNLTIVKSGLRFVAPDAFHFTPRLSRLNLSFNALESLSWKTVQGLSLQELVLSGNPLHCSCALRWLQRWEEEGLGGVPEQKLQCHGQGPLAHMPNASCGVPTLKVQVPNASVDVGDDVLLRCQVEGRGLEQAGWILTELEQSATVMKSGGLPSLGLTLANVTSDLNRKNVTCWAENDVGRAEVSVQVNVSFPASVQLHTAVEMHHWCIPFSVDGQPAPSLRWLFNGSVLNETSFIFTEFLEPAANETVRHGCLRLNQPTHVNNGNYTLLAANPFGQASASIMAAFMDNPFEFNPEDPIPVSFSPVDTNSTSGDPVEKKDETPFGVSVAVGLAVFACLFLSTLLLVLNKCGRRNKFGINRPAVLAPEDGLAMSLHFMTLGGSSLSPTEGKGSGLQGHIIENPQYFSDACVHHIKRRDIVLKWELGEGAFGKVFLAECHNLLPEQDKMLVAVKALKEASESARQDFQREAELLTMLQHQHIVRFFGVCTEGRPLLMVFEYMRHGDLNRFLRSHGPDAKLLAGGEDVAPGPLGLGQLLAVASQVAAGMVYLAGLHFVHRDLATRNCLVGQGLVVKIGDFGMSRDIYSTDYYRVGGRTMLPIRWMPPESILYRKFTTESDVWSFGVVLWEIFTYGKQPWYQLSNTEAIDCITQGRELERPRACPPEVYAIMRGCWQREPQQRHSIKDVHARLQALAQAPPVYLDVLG
Text: as §1

ACK = target: T10, ACK (Homo sapiens, UniProt Q07912); assay: QuickScout ELISA kinase panel; assay type: biochemical; settings: Compound 5 at 10 nM
T10 construct: purchased Carna Biosciences (QuickScout service)
Text: (§2) . […] An ELISA-based assay was used in which the phosphorylation of an oligopeptide substrate was detected by an HRP-conjugated anti-p-Tyr (PY20) probe. […]. The data appears in Table 2 in Example 3.

CSK = target: T11, CSK (Homo sapiens, UniProt P41240); assay: QuickScout ELISA kinase panel; assay type: biochemical; settings: Compound 5 at 10 nM
T11 construct: purchased Carna Biosciences (QuickScout service)
T11 sequence (P41240 whole entry): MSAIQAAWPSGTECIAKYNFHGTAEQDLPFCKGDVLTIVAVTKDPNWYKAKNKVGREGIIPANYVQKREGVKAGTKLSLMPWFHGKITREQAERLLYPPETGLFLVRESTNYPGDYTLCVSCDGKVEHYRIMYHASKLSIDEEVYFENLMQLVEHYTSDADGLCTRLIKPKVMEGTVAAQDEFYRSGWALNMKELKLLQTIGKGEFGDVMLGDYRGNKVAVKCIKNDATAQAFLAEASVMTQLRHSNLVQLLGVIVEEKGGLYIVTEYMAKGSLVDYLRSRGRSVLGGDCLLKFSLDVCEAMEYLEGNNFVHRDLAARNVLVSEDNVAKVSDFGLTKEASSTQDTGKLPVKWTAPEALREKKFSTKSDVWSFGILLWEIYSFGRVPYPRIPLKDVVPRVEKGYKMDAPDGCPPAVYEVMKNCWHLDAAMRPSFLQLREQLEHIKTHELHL
Text: as §2

EphA2 = target: T12, EphA2 (Homo sapiens, UniProt P29317); assay: QuickScout ELISA kinase panel; assay type: biochemical; settings: Compound 5 at 10 nM
T12 construct: purchased Carna Biosciences (QuickScout service)
Text: as §2

EphB4 = target: T13, EphB4 (Homo sapiens, UniProt P54760); assay: QuickScout ELISA kinase panel; assay type: biochemical; settings: Compound 5 at 10 nM
T13 construct: purchased Carna Biosciences (QuickScout service)
Text: as §2

FLT3 = target: T14, FLT3 (Homo sapiens, UniProt P36888); assay: QuickScout ELISA kinase panel; assay type: biochemical; settings: Compound 5 at 10 nM
T14 construct: purchased Carna Biosciences (Kobe, Japan), QuickScout service
Text: as §2

JAK3 = target: T15, JAK3 (Homo sapiens, UniProt P52333); assay: QuickScout ELISA kinase panel; assay type: biochemical; settings: Compound 5 at 10 nM
T15 construct: purchased Carna Biosciences (QuickScout service)
Text: as §2

MET = target: T16, MET (Homo sapiens, UniProt P08581); assay: QuickScout ELISA kinase panel; assay type: biochemical; settings: Compound 5 at 10 nM
T16 construct: purchased Carna Biosciences (QuickScout service)
T16 sequence (P08581 25-1390): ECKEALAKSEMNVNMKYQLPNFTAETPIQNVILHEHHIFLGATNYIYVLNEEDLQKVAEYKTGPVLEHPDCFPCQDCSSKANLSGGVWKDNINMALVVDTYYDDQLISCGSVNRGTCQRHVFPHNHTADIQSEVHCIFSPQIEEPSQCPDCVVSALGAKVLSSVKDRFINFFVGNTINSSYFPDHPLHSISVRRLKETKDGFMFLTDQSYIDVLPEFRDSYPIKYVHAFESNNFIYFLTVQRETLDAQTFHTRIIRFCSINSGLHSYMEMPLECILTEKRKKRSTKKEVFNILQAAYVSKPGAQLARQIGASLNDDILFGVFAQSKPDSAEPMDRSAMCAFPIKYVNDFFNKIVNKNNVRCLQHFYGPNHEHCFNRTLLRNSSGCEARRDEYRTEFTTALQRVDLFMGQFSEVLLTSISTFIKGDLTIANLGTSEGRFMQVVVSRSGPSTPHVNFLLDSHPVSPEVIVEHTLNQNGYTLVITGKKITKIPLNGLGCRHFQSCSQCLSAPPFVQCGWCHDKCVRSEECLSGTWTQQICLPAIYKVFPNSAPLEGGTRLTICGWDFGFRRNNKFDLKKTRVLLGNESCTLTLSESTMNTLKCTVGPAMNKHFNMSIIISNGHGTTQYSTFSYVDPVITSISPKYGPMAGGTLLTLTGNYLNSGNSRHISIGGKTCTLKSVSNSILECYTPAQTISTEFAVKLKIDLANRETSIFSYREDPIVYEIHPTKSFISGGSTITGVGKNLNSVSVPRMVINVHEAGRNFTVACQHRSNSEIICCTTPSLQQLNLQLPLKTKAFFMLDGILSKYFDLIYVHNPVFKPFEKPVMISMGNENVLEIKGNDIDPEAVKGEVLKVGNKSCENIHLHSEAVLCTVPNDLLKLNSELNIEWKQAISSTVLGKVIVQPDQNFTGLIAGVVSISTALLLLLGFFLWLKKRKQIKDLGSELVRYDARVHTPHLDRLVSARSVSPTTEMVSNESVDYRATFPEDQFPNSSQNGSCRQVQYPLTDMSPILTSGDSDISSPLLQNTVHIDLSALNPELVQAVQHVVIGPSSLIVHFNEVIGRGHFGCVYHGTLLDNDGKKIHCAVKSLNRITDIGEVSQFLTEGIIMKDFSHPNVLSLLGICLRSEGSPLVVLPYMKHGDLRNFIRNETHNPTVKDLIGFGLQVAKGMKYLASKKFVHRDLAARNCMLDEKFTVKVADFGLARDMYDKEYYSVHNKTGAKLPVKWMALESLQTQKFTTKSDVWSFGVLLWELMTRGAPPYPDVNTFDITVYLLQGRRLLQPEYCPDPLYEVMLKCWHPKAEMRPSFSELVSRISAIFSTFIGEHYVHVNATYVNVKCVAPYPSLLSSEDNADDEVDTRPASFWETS
Text: as §2

PDGFR— = target: T17, PDGFR— (Homo sapiens, UniProt P16234); assay: QuickScout ELISA kinase panel; assay type: biochemical; settings: Compound 5 at 10 nM
T17 construct: purchased Carna Biosciences (Kobe, Japan), QuickScout service
Text: as §2

TEC = target: T18, TEC (Homo sapiens, UniProt P42680); assay: QuickScout ELISA kinase panel; assay type: biochemical; settings: Compound 5 at 10 nM
T18 construct: purchased Carna Biosciences (Kobe, Japan), QuickScout service
T18 sequence (P42680 1-631): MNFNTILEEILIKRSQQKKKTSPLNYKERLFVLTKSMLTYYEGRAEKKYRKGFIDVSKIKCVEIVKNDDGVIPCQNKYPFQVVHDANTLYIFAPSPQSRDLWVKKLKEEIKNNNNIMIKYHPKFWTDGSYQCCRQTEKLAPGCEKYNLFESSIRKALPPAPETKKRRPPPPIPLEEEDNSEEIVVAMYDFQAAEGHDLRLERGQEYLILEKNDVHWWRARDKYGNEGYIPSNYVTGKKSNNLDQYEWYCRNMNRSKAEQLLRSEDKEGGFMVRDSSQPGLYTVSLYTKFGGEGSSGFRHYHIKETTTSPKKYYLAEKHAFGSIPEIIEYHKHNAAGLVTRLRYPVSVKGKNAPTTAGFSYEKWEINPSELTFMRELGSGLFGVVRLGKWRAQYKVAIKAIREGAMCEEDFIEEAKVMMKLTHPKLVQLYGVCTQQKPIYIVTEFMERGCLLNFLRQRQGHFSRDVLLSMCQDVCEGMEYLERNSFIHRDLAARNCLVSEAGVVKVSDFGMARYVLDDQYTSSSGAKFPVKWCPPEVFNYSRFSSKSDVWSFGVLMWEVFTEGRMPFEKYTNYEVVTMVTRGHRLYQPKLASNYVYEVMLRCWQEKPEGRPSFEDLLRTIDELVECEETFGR
Text: as §2

TYRO3 = target: T19, TYRO3 (Homo sapiens, UniProt Q06418); assay: QuickScout ELISA kinase panel; assay type: biochemical; settings: Compound 5 at 10 nM
T19 construct: purchased Carna Biosciences (QuickScout service)
Text: as §2

1% bovine serum albumin = target: T20, 1% bovine serum albumin (Bos taurus, UniProt P02769); assay: Protein binding assay, BSA; assay type: in vitro ADME
T20 construct: from tissue; host or cells: bovine serum (from the protein's name)
Protocol: Protein binding of the radiotracers were determined adding 37 kBq (1 μCi) of each radioligand to samples of 1% bovine serum albumin and 1 mL of fresh human serum. The protein was precipitated by adding 1 mL of ice cold 20% trichloroacetic acid and the suspension centrifuged and washing with 1 mL of 20% ice cold trichloroacetic acid. The protein pellets and supernatants were counted in a gamma counter to determine the protein binding of the radioligands.

ABL = ABL (Homo sapiens, UniProt P00519); assay type: biochemical; set-up: purchased Invitrogen; settings: mean of three experiments; read-out: IC50, Abl protein
Protocol: Kinase was preincubated with inhibitor at 37° C. for 10 min prior to starting the reaction upon addition of ATP; Assay was carried out in 384 well clear plates (Corning) and absorbance was measured on SpectraMax plate reader (Molecular Devices). Reaction rates were plotted against inhibitor concentration and fitted using SigmaPlot 9.0 (Systat Software Inc.).

Cc1nc(Nc2ncc(C(=O)Nc3c(C)cccc3Cl)s2)cc(N2CCN(CCF)CC2)n1 [Compound 5, N-(2-Chloro-6-methylphenyl)-2-(6-(4-(2-fluoroethyl)piperazin-1-yl)-2-methylpyrimidin-4-ylamino)thiazole-5-carboxamide]
inhibition at 0.01 µM (EGFR): 27.2% | inhibition at 0.01 µM (FAK): -18.3% | inhibition at 0.01 µM (FGFR1): 20.4% | inhibition at 0.01 µM (IGF1R): 5.9% | inhibition at 0.01 µM (KDR): -5.6% | IC50 (KIT): < 2 nM | inhibition at 0.01 µM (KIT; Compound 5 at 10 nM): > 97% | % Inhibition of Kinase Activity, KIT (KIT; Compound 5 at 10 nM, 0.01 µM): 98.7% | inhibition at 0.01 µM (SYK): 4.5% | inhibition at 0.01 µM (TIE2): -51.7% | inhibition at 0.01 µM (TRKA): -0.9% | inhibition at 0.01 µM (ACK): 83.1% | inhibition at 0.01 µM (CSK): 95.2% | inhibition at 0.01 µM (EphA2): 98.1% | inhibition at 0.01 µM (EphB4): 97% | inhibition at 0.01 µM (FLT3): 0.3% | inhibition at 0.01 µM (JAK3): 16% | inhibition at 0.01 µM (MET): 7.2% | inhibition at 0.01 µM (PDGFR—): 86% | inhibition at 0.01 µM (TEC): 98.1% | inhibition at 0.01 µM (TYRO3): 23.1% | protein bound in 1% BSA (1% bovine serum albumin): 99.0±0.3% | IC50 (ABL): 9.1 ± 0.8 nM
